Key:
HFF-1 cells = experiment: Cell viability assay (WST-1) in human fibroblastic cell line; format: cell-based; settings: HFF-1, 1 mM, 24 h, WST-1
Method: (§1) To conclude with this part of our work on the molecular responsiveness of the “vermellogens,” we decided to substantiate whether the bis-pyridinium core in the compounds would have or not a viologen-like reversible redox behavior. Thus, cyclic voltamograms were recorded for RaH·2Cl (2 mM) in buffered aqueous solutions at pH = 2 (0.05 M H3PO4/NaH2PO4), 7 (0.05 M NaH2PO4/Na2HPO4), and 12 (0.05 M Na2HPO4/Na3PO4). Those shown both the acidic (RaH^2+) and basic (Ra^+) forms of the “red thread” owning non-reversible redox peaks (Figure 1b).
(§2) Fibroblast cells (HFF-1; ATTC® SCRC-1041TM) were maintained in Dulbecco’s modified eagle’s medium (DMEM) supplemented with 10% FBS and 1% P/S and kept at 37 °C in a humidified atmosphere containing 5% CO2 until their use. HFF-1 cells were seeded in 96 well-plates at an initial density of 10^4 cells/well and allowed to attach for 24 h at 37 °C. The following day, culture medium was removed, replenished by fresh medium (90 µl) and cells were exposed to different concentration of R aH·2Cl and MV (10 µl; final concentrations 0.01, 0.05, 0.1, 0.5 and 1 mM). Control conditions included cells cultured in culture medium, but in absence of compound. Cells were further incubated for 24 h at 37°C and cell viability was monitored using the tetrazolium salt (WST-1) method.6 Absorbance at 450 nm was measured using a Synergy HTX Plate Reader (Biotek, Winooski, VT, USA) and the percent of cell viability (%) was calculated as follows:
(§3) Viability (%) = […]
(§4) Where Asample and Anegative control depict those absorbance values measured at 450 nm in presence and in absence of compound, respectively. All conditions were tested by triplicate in two independent experiments. Data were expressed as mean ± standard deviation (SD). Statistical analysis was performed by two-ways and one-way ANOVA with Tukey’s LSD post hoc test using IBM SPSS Statistics version 23. A p ≤ 0.05 was considered statistically significant.
(§5) Figure S 138: Compounds tested in WST-1 assay for cell viability.
(§6) 6 Carballo-Pedrares, N.; Kattar, A.; Concheiro, A.; Alvarez-Lorenzo, C.; Rey-Rico, Niosomes-based gene delivery systems for effective transfection of human mesenchymal stem cells. A. Matter. Sci. Eng. 2021, 18, 112307.

[1] = as above; format: cell-based; settings: human, HFF-1 fibroblast cells; HFF-1, 0.5 mM, 24 h, WST-1; read-out: cell viability (cell survival)
Method: as §1, §2, §3, §4, §5, §6

[2] = pKa determination by UV–vis acid–base titrations in water; format: physicochemical; settings: aqueous phosphate and carbonate buffers; RH^2+/R^+ or MH^+/M; UV–vis titrations in water, chloride salts
Source text: Next, in our study of the stimuli-responsiveness of the “vermellogens”, we proceeded to verify the new analogues as pH-based molecular switches, by conducting UV–vis acid–base titrations in water for the compounds Ra–eH·2Cl. All the new “vermellogens” show similar π–π* main absorption bands centered at λ^1max = 366–377 nm at neutral or slightly acidic pH. An increase in the basicity of the solution produces the decrease of the aforementioned bands and the concomitant rise of new absorptions associated with the deprotonated compounds and centered at λ^2max = 460–475 nm. The pKa values obtained by the aforementioned UV–vis titrations for Ra–eH·2Cl are quite similar, showing no dependence on the substituent on the pyridinium N^+ atoms within their structures (Table 1 and Figures S115–S125). Furthermore, to evaluate the effect of the two different pyridinium heterocycles on the observed anomalous pKa’s, two analogues were prepared (Ma–bH·Cl), in which one of these moieties was substituted by a neutral phenyl ring.
4.2. pK a determination for Rb by UV-Vis
(§7) Figure S 116: UV-Vis spectra for the titration of R b·2Cl at 20 μM in NaH 2PO4/Na2HPO4, KHCO3/K2CO3 and Na2HPO4/Na2PO4 buffers. On the top right: Absorption of R b+ at λ = 474 nm plotted against pH. pH V (mL) of V (mL) of V (mL) of V (mL) of V (mL) of ABS log[A474-(measured) solution A solution B solution C solution D solution E (474 ARb2+)/(ARb1+- […]
(§8) Table S 4: Experimental data obtained for the UV-Vis titration of R b·2Cl at 20 μM in NaH2PO4/Na2HPO4, KHCO3/K2CO3 and Na2HPO4/Na2PO4 buffer. Solution A: 20 μM of R b·2Cl and 0.05 M of NaH2PO4. Solution B: 20 μM of R b·2Cl and 0.05 M of NaHPO4. Solution C: 20 μM of R b·2Cl and 0.05 M of Na2PO4. Solution D: 20 μM of R b·2Cl and 0.05 M of KHCO3. Solution E: 20 μM of R b·2Cl and 0.05 M of […]
4.4. pK a determination for Rc by UV-Vis
as §7, with “119:” for “116:”, “c·2Cl” for “b·2Cl”, “c+” for “b+”, “466” for “474”, “log[A466-(measured)” for “log[A474-(measured)”, “(466 ARc2+)/(ARc+-” for “(474 ARb2+)/(ARb1+-”
Table S 5: Experimental data obtained for the UV-Vis titration of R c·2Cl at 20 μM in NaH2PO4/Na2HPO4, KHCO3/K2CO3 and Na2HPO4/Na2PO4 buffer. Solution A: 20 μM of Rc·2Cl and 0.05 M of NaH2PO4. Solution B: 20 μM of R c·2Cl and 0.05 M of NaHPO4. Solution C: 20 μM of R c·2Cl and 0.05 M of Na2PO4. Solution D: 20 μM of R c·2Cl and 0.05 M of KHCO3. Solution E: 20 μM of R c·2Cl and 0.05 M of […]
4.6. pK a determination for Rd by UV-Vis
as §7, with “122:” for “116:”, “d·2Cl” for “b·2Cl”, “d+” for “b+”, “475” for “474”, “log[A475-(measured)” for “log[A474-(measured)”, “(475 ARd2+)/(ARd1+-” for “(474 ARb2+)/(ARb1+-”
as §8, with “6:” for “4:”, “d·2Cl” for “b·2Cl”
4.8. pK a determination for Re by UV-Vis
as §7, with “125:” for “116:”, “e·2Cl” for “b·2Cl”, “e+” for “b+”, “460” for “474”, “log[A460-(measured)” for “log[A474-(measured)”, “(460 ARe2+)/(ARe1+-” for “(474 ARb2+)/(ARb1+-”
Table S 7: Experimental data obtained for the UV-Vis titration of R e·2Cl at 20 μM in NaH2PO4/Na2HPO4, KHCO3/K2CO3 and Na2HPO4/Na2PO4 buffer. Solution A: 20 μM of R e·2Cl and 0.05 M of […]

For `C[n+]1ccc(/C=N/Nc2cc[n+](C)cc2)cc1` [RaH·2X, (E)-1-methyl-4-((2-(1-methylpyridin-1-ium-4-yl)hydrazineylidene)methyl)pyridin-1-ium], the “cell survival at the highest concentration tested” value (HFF-1 cells) was “slight reduction on cell survival”, the viability at 24 h, 0.5 mM [1] was roughly 90% and the pKa [2] was 9.

From PMC9682480, ““Vermellogens” and the Development of CB[8]-Based Supramolecular Switches Using pH-Responsive and Non-Toxic Viologen Analogues” (Journal of the American Chemical Society, 2022)
